What all share (assay): NCI anticancer screen, dose series, 48 h
In test [1] the test system is A498 renal.
Test [2] has as its system OVCAR-3 ovarian.
For test [3], the system named is MDA-MB-435.
Test [4] relates to BT-549 breast.
In test [5] the test system is ACHN renal.
Test [6] relates to A549 NSCLC.
Test [7] deals with SF-268 CNS.
Test [8] has as its system COLO 205 colon.
For test [9], the system named is MOLT-4 leukemia.
For test [10], the system named is MCF7 breast.

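How tested: cells in 96-well plates exposed to compound for 48 hours at five concentrations. At the GI50, growth is halved. At the TGI there is no net growth.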

Regarding `COC(CCP(=O)(c1ccccc1)c1ccccc1)(C(=O)c1ccccc1)c1ccccc1` (stereo not given), the GI50 is 3.4 µM in [1]; 5.26 µM in [2]; 3.64 µM in test [3]; 4.55 µM in test [4]; 4.98 µM in test [5]; 3.77 µM in test [6]. The GI50 in test [7] is 10.2 µM; in test [8], 1.64 µM; in [9], 2.06 µM; in [10], 2.39 µM. Besides, the TGI in test [1] is 16.8 µM; in test [2], 18.2 µM; in test [3], 15 µM; in [4], 15.6 µM; in test [5], 17 µM; in test [6], 16.5 µM. For the same molecule, the TGI in test [7] is 21.9 µM; in test [8], 3.82 µM; in test [9], greater than 100 µM; in test [10] it was 11.3 µM.

Turning to `C#C[C@]1(O)CC[C@H]2[C@@H]3CC=C4c5sc(N=C(N)N)nc5CC[C@]4(C)[C@H]3CC[C@@]21C`, the GI50 in test [1] is 0.274 µM; in test [2], 1.36 µM; in [3], 0.7 µM; in [4] it was 1.08 µM; in [5], 0.971 µM; in [6] it was 0.865 µM. In addition, the GI50 in [7] is 0.959 µM; in test [8], 0.667 µM; in test [9], 0.297 µM; in [10], 0.391 µM. Further, the TGI in [1] was determined as 1.02 µM; in [2], 2.82 µM; in test [3], 2.01 µM; in test [4], 2.49 µM; in [5] it was 2.21 µM; in [6], 2.72 µM. Moreover, the TGI was found to be 2.75 µM in [7], 2.24 µM in [8], 1.01 µM in [9] and 1.88 µM in test [10].

With `CCC[C@H](N[C@@H]1CCc2cc(F)cc(F)c2C1)C(=O)Nc1cn(C(C)(C)CNCC(C)(C)C)cn1`, the GI50 was 7.41 µM in test [1]; 15.3 µM in test [2]; 17 µM in test [3]; 11.5 µM in test [4]; 22.7 µM in test [5]; 23.2 µM in test [6]. Besides, the GI50 in [7] is 20.4 µM; in test [8], 12.5 µM; in test [9], 8.03 µM; in [10] it was 15.6 µM. The TGI in test [1] is 42.9 µM; in test [2] it was 42.9 µM; in test [3], 53.2 µM; in [4], 37.8 µM; in test [5], greater than 96.7 µM; in test [6] it was greater than 100 µM. The TGI in test [7] was greater than 100 µM; in [8], 26.9 µM; in [9], greater than 68.1 µM; in test [10], greater than 56.7 µM.

In the case of `COc1ccc(-c2n[nH]nc2-c2csc3ccccc23)cc1OC`, the GI50 was 2.96 µM in [1]; 1.94 µM in test [2]; 0.337 µM in test [3]; 2.17 µM in test [4]; 3.94 µM in test [5]; 4.52 µM in test [6]. Also, the GI50 was 3.69 µM in test [7], 2.82 µM in test [8], 3.05 µM in [9] and 1.45 µM in [10]. Also, the TGI in test [1] amounted to 12.1 µM; in [2], 7.63 µM; in [3] it was 3.52 µM; in [4] it was 12.5 µM; in test [5] it was 76 µM; in test [6], 70.9 µM. For the same molecule, the TGI in test [7] was determined as 41.8 µM; in test [8] it was 11.7 µM; in test [9], 27.7 µM; in test [10], 15.1 µM.

Take `CCCCCCCCCCCCCCCc1cc(O)ccc1N`: the GI50 in test [1] is 21.7 µM; in test [2], 5.1 µM; in [3], greater than 100 µM; in test [4], 0.305 µM; in [5], greater than 100 µM; in [6] it was greater than 100 µM. In addition, the GI50 was 4.33 µM in [7], greater than 9.96 µM in test [8], 0.183 µM in [9] and 23 µM in [10]. For the same molecule, the TGI in test [1] was 75.3 µM; in [2], greater than 27.9 µM; in test [3], greater than 100 µM; in test [4], greater than 74.7 µM; in test [5], greater than 100 µM; in test [6], greater than 100 µM. Further, the TGI in test [7] was 23.9 µM; in test [8], greater than 62.5 µM; in [9] it was greater than 24.8 µM; in test [10] it was greater than 100 µM.

With `O=[N+]([O-])c1ccccc1N=Nc1c(O)[nH]c2ccccc12`, the TGI in test [1] was greater than 61.6 µM; in test [2], 31.7 µM; in test [3], greater than 100 µM; in test [4], greater than 100 µM; in test [5] it was 23.7 µM; in [6] it was greater than 100 µM. In addition, the TGI in test [7], in test [8], in test [9] and in [10] was greater than 100 µM each time.

For the molecule `CCCN(CCC)c1ccc(CO)c(C)c1`, the GI50 is 1.09 µM in test [1]; 23 µM in test [2]; 76.8 µM in test [3]; 47.6 µM in [4]; 81 µM in test [5]; 83.3 µM in test [6]. Besides, the GI50 is 63.7 µM in [7], 19.4 µM in test [8], 26.8 µM in test [9] and greater than 100 µM in test [10]. Moreover, the TGI is 3.64 µM in test [1]; greater than 100 µM in test [2]; greater than 100 µM in test [3]; greater than 100 µM in test [4]; greater than 100 µM in [5]; greater than 100 µM in test [6]. Besides, the TGI in test [7] was greater than 100 µM; in test [8] it was 68.8 µM; in test [9] it was greater than 100 µM; in [10], greater than 100 µM.

As to `N#Cc1ccccc1C#C/C=C\C#Cc1ccc(OCCCNC(=O)c2cc3ccccc3[nH]2)cc1`, the GI50 was 16.1 µM in test [1]; 18.2 µM in test [2]; 19 µM in [3]; 20.2 µM in test [4]; 16.9 µM in test [5]; 22.9 µM in test [6]. Further, the GI50 in [7] is 30.6 µM; in [8], 15.9 µM; in test [9], 5.23 µM; in test [10] it was 33.4 µM. The TGI in [1] is 36.5 µM; in [2], 41.4 µM; in [3] it was 42.7 µM; in [4], greater than 100 µM; in [5], 34.9 µM; in test [6], greater than 100 µM. In addition, the TGI was greater than 100 µM in test [7], 44.6 µM in test [8], 23.4 µM in test [9] and greater than 100 µM in [10].

These data come from PubChem BioAssay (NCI).
